Experimental data as given in patent US20260198495A1, “BINARY INSECTICIDE COMPOSITION AND USE THEREOF” (SHENYANG SINOCHEM AGROCHEMICALS R & D CO., LTD., priority 2022, published 2026).
≈ marks a conversion by molar mass, not a printed value.

Columns and labels:
Assay type in all cases: in vivo
[1] = tested on: 2nd-instar nymphs of Frankliniella occidentalis Pergande; assay: Joint toxicity of I-72 + spinetoram, leaf spraying, Example 11, Table 11; conditions: Frankliniella occidentalis, kidney bean leaf spraying, 48 h, A = compound I-72, B = spinetoram, read-out: LC50
Description: Test subject: 2nd-instar nymphs of Frankliniella occidentalis Pergande, a sensitive strain reared indoors.
Experimental method: the spraying method was adopted. The kidney bean leaves cultivated in the greenhouse were selected, and the petioles were wrapped with moist degreased cotton and sealing film. They were evenly sprayed with the pesticide solution in the order from low dosage to high dosage according to the experimental design, placed in a 6-cm-diameter Petri dish with filter paper. After natural air-drying in the shade, the test insects were introduced, with 20 insects for each treatment and 3 replicates. In addition, a blank control was set up. The number of dead and live insects was investigated 48 hours later. The corrected mortality rate was calculated using the Abbott's formula, and the DPS data processing software was used for statistical analysis to calculate the toxicities (LC50 values) of the single test pesticides and the mixtures under the test ratios.
The test conditions, the preparation of the pesticide solution and the evaluation method were the same as those in Example 1.

[2] = tested on: 3rd-instar larvae of Chilo suppressalis (Walker); assay: Joint toxicity of I-72 + organophosphorus insecticides, rice seedling dipping, Example 15, Table 15; conditions: 3rd-instar larvae, rice seedling dipping, 48 h, A = compound I-72, B = diazinon, read-out: LC50
How it was run: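 Rice seedling sections dipped 10 s in acetone/0.1% Tween 80 dilutions of single agents or mixtures, air-dried and fed to lab-reared 3rd-instar larvae (10 per dish, 3 replicates). Mortality scored after 48 h, Abbott-corrected; LC50 with 95% limits by regression, and co-toxicity coefficients by the Sun Y-P method.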

[3] = tested on: 3rd-instar larvae of Hyphantria cunea; assay: Joint toxicity of I-72 + organophosphorus insecticides, poplar leaf dipping, Example 20, Table 20; conditions: foliar, A = compound I-72, B = triazophos, poplar leaf dipping, 72 hours, read-out: LC50
Description: Test target: 3rd-instar larvae of Hyphantria cunea, a sensitive strain reared indoors.
Experimental method: first, fresh and tender poplar leaves were selected, cut into small sections of 5 cm, and dipped in the prepared pesticide solution for 10 s in the order from low dosage to high dosage according to the experimental design. After natural air-drying in the shade, they were placed in a 9-cm-diameter Petri dish with filter paper, and uniform and healthy test insects were introduced, with 10 insects for each treatment and 3 replicates for each treatment. In addition, a blank control was set up.

[4] = tested on: 2nd-instar larvae of Mythimna separata; assay: Joint toxicity of I-72 + beta-cyfluthrin, Example 41, Table 41; conditions: Mythimna separata, foliar; A = compound I-72, B = beta-cyfluthrin; corn leaf dipping; 72 hours; read-out: LC50
Experimental: Test target: 2nd-instar larvae of Mythimna separata.
(§1) Preparation of the pesticide solution: according to different test requirements, the test samples were accurately weighed respectively with an electronic analytical balance. The technical pesticides were dissolved in acetone, and then diluted with 0.1% Tween 80 water into a series of pesticide solutions with a certain concentration gradient according to the experimental design dosage.
(§2) Experimental method: first, corn leaves were selected and dipped in the prepared pesticide solution for 10 s in the order from low dosage to high dosage according to the experimental design. After natural air-drying in the shade, they were placed in a 9-cm-diameter Petri dish with filter paper, and uniform and healthy test insects were introduced, with 10 insects for each treatment and 3 replicates for each treatment. In addition, a blank control was set up.
(§3) The treated test materials were placed in an observation room, and the temperature, humidity and illumination of the observation room could be adjusted as needed. The number of dead and live insects was investigated 72 hours later. […] Then, the co-toxicity coefficient of each ratio was calculated using the Sun Y-P method to evaluate the mixing effect (the same as in Example 1).

[5] = tested on: adult Phyllotreta vittuta Fabr.; assay: Joint toxicity of I-72 + deltamethrin, Example 45, Table 45; conditions: A = compound I-72, B = deltamethrin; potted cabbage seedling spraying; 72 hours; read-out: LC50
Experimental: Test target: adult Phyllotreta vittuta Fabr.
as §1
Experimental method: first, uniform and consistent potted cabbage seedlings were selected. Then, uniform spraying was performed with the pesticide solution in the order from low dosage to high dosage according to the experimental design. After air-drying in the shade, adult flea beetles were transferred onto the treated cabbage seedlings, and then glass covers were put on them, with about 30-40 adult flea beetles on each seedling and 3 replicates for each treatment. In addition, a blank control was set up.
as §3

[6] = tested on: 3-instar larvae of Ostrinia furnacnlis Guenee; assay: Joint toxicity of I-72 + flubendiamide, Example 61, Table 61; conditions: A = compound I-72, B = flubendiamide, corn stem dipping, 72 hours, read-out: LC50
Experimental: Test target: 3-instar larvae of Ostrinia furnacnlis Guenee.
as §1
as §2, with “first, tender” for “first,”, “stems” for “leaves”
as §3

[7] = tested on: Myzus persicae (Sulzer) nymphs; assay: whole plant or invertebrate; conditions: A = compound I-72, B = clothianidin, cabbage leaf spraying, 48 hours, read-out: LC50
Experimental: Test target: Myzus persicae (Sulzer) nymphs, a sensitive strain reared indoors.
as §1
Experimental method: first, cabbage leaves with uniform and consistent Myzus persicae (Sulzer) were selected, with about 30-40 insects on each leaf. Then, they were evenly sprayed with the pesticide solution in the order from low dosage to high dosage according to the experimental design, with 1.5 mL of the solution for each leaf and 3 replicates for each treatment. In addition, a blank control was set up.
The treated test materials were placed in an observation room, and the temperature, humidity and illumination of the observation room could be adjusted as needed. The number of dead and live insects was investigated 48 hours later.

[8] = tested on: early 2nd-instar grubs of Holotrichia diomphalia Bates; assay: whole plant or invertebrate; conditions: Holotrichia diomphalia; A = compound I-72, B = tebuconazole; insect-dipping; 72 hours; read-out: LC50
Experimental: Test target: early 2nd-instar grubs of Holotrichia diomphalia Bates.
Test conditions: temperature: 24-26° C., humidity: RH 60%, and illumination: L:D=14:10
as §1
Experimental method: the activity against Holotrichia diomphalia Bates was determined by the insect-dipping method. The early 2nd-instar grubs of Holotrichia diomphalia Bates were selected. The target insects were dipped into the pesticide solution for 10 s and then taken out. Excess pesticide solution was absorbed with filter paper. […] A treatment without the pesticide was set as the blank control.
The test insects were transferred to a multi-well culture plate with fresh potato pieces and placed in an observation room, and the temperature, humidity and illumination of the observation room could be adjusted as needed. The number of dead and live insects was investigated 72 hours later. The corrected mortality rate was calculated using the Abbott's formula, and statistical analysis was performed with the DPS data processing software to obtain the toxicity regression equation and LC50 value of each single test pesticide and each mixture of different ratios.

CN(C(=O)c1ccc2c(c1)OC(F)(F)O2)c1cccc(C(=O)Nc2c(Br)cc(C(F)(C(F)(F)F)C(F)(F)F)cc2OC(F)F)c1F [Compound I-72]
LC50 [1]: 1.94 µg/mL | LC50 [2]: 1.76 µg/mL | LC50 [3]: 5.74 µg/mL | LC50 [4]: 0.029 µg/mL | LC50 [5]: 1.24 µg/mL | LC50 [6]: 0.804 µg/mL | LC50 [7]: 8.05 µg/mL (≈ 10.9 µM) | LC50 [8]: 63.4 µg/mL (≈ 85.5 µM)
